Data on four compounds can be found in ChEMBL document CHEMBL5678803, “Selective blockade of TRPA1 channel attenuates pathological pain without altering noxious cold sensation or body temperature regulation” (Pain, 2011).

Data set [1] has as its system Rattus norvegicus. As to the kind of experiment: Antiallodynic activity in spinal nerve ligation-induced neuropathic pain Sprague-Dawley rat model assessed as attenuation of mechanical allodynia at 100 mg/kg, po administered with compound for 1 hrs and measured 10 to 14 days after surgery relative to control. The data set is classed as functional. The conditions noted are these: time 241-337 hrs.

Data set [2] deals with Rattus norvegicus. As to the kind of experiment: Antiallodynic activity in CCI-induced neuropathic pain Sprague-Dawley rat model assessed as attenuation of mechanical allodynia at 100 mg/kg, po administered with compound for 1 hrs and measured 10 to 14 days after surgery relative to control. The data set is classed as functional. The conditions noted are these: time 241-337 hrs.

Data set [3] has as its system Rattus norvegicus. As to the kind of experiment: Antiallodynic activity in CFA-induced mechanical allodynia Sprague-Dawley rat model assessed as attenuation of mechanical allodynia at 100 mg/kg, po administered with compound for 1 hrs and measured 48 hrs after CFA injection relative to control. The conditions noted are these: time 49 hrs. It counts as functional.
Data set [4] concerns the target Cannabinoid receptor 2 (Homo sapiens) (UniProt P34972). As to the kind of experiment: Inhibition of CB2 receptor (unknown origin) at 10 micromol/L by radioligand binding assay relative to control. The conditions noted are these: dose 10.0 µmol/L.
The species entered for data set [5] is Homo sapiens. Nature of the data set: Inhibition of sigma receptor (unknown origin) at 10 micromol/L by radioligand binding assay relative to control. As to conditions: dose 10.0 µmol/L.
Data set [6] addresses T1, Transient receptor potential cation channel subfamily A member 1 (Homo sapiens, UniProt O75762). Nature of the data set: Antagonist activity at recombinant human TRPA1 expressed in HEK293F cells assessed as reduction in AITC-induced increase in intracellular Ca2+ level by FLIPR-based Ca2+ assay. The data set is classed as cell-based.
The target of data set [7] is Transient receptor potential cation channel subfamily A member 1 (Rattus norvegicus, UniProt Q6RI86). Nature of the data set: Antagonist activity at rat TRPA1 expressed in HEK293F cells assessed as reduction in AITC-induced increase in intracellular Ca2+ level by FLIPR-based Ca2+ assay. The data set is classed as cell-based.
For data set [8], the species on record is Homo sapiens. Nature of the data set: Inhibition of sodium channel (unknown origin) at 10 micromol/L by radioligand binding assay relative to control. As to conditions: dose 10.0 µmol/L.
Data set [9] is described as follows: Toxicity in Sprague-Dawley rat assessed as increase in body temperature at 3.88 mg/kg, po measured after 480 mins by radiotelemetric analysis. The data set is classed as organism-based. The conditions noted are these: in vivo, 8 h.
Data set [10] is described as follows: Toxicity in Sprague-Dawley rat assessed as effect on tail withdrawal latency to hot water immersion at 55 degreeC at 11.6 mg/kg, po by tail immersion test. It counts as organism-based. The conditions noted are these: in vivo.
Data set [11] can be described thus: Toxicity in Sprague-Dawley rat assessed as increase in body temperature at 1.16 mg/kg, po measured after 480 mins by radiotelemetric analysis. It counts as organism-based. The conditions noted are these: in vivo, 8 h.
Data set [12] has as its target T1, Transient receptor potential cation channel subfamily A member 1. Nature of the data set: Antagonist activity at TRPA1 (unknown origin).

T1 sequence (O75762 whole entry): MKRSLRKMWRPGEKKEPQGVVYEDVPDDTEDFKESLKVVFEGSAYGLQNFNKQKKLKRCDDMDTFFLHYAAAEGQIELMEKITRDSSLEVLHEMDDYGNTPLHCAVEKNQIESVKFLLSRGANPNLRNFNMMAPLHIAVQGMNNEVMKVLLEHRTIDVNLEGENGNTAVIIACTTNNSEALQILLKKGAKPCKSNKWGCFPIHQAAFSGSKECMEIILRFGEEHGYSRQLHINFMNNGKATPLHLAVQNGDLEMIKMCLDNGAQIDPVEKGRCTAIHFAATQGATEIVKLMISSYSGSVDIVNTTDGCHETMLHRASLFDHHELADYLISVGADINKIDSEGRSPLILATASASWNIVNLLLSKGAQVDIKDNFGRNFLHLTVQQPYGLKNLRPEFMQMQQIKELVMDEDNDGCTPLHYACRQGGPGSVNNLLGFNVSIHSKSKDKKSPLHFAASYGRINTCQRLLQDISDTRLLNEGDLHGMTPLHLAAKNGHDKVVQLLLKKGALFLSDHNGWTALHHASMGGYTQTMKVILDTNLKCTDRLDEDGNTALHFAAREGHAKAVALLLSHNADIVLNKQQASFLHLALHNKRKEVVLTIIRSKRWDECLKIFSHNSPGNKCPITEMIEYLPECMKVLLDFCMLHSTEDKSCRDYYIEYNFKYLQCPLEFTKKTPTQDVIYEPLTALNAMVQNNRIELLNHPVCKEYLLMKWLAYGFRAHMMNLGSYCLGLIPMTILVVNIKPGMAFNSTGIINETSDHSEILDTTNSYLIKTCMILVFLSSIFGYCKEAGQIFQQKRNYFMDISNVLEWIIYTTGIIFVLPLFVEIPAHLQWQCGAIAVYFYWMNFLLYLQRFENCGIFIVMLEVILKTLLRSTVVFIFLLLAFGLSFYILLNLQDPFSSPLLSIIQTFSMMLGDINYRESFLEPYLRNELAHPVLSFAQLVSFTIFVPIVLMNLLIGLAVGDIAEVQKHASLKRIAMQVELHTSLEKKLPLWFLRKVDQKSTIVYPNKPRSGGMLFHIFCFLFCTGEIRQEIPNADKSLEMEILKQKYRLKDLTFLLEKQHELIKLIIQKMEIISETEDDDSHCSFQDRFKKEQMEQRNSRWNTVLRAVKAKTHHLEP
Sequence of Transient receptor potential cation channel subfamily A member 1 (Rattus norvegicus, UniProt Q6RI86) (Q6RI86 whole entry): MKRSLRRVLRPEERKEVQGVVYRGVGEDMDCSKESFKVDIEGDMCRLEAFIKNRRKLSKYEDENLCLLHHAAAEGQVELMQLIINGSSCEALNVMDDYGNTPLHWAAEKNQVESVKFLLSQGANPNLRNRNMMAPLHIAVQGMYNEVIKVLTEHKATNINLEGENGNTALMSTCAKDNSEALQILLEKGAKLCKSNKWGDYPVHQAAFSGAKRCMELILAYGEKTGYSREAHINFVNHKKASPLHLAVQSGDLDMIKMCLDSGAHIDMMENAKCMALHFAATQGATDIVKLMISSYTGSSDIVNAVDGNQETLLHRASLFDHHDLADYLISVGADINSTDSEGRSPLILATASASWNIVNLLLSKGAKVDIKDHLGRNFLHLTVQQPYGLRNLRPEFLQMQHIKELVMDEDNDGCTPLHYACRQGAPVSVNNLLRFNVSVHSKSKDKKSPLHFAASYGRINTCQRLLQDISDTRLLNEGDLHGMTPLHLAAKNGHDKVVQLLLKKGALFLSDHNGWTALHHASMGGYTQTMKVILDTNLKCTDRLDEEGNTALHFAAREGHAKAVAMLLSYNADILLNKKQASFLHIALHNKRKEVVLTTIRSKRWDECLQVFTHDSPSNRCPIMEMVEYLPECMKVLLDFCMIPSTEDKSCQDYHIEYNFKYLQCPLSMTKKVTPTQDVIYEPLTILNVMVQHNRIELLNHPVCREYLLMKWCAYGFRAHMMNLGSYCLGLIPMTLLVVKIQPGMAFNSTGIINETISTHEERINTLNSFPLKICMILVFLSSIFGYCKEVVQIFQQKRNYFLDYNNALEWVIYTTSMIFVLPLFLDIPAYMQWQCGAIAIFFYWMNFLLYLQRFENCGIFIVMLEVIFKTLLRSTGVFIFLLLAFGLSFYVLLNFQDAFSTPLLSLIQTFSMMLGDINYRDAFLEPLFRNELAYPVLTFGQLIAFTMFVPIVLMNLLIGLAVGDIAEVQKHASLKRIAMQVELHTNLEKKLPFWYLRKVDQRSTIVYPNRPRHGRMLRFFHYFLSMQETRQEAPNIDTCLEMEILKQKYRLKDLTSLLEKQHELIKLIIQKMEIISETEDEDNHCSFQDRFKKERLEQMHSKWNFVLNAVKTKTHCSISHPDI
Sequence of Cannabinoid receptor 2 (Homo sapiens) (P34972 whole entry): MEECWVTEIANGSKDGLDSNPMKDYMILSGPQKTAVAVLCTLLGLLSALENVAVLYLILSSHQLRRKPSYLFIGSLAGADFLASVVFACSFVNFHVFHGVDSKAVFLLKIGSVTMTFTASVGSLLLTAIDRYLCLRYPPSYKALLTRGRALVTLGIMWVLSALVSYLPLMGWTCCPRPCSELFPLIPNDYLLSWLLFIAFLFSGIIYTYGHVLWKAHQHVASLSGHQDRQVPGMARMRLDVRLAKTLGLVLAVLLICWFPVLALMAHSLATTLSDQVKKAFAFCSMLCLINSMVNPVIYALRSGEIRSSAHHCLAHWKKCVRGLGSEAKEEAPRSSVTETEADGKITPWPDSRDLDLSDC

As to `NCC1(CC(=O)O)CCCCC1` [GABAPENTIN], the Activity in the data set on Rattus norvegicus [1], in the data set with Rattus norvegicus [2] and in the data set on Rattus norvegicus [3] was 50% each time.

Consider `CC(C)c1ccc(NC(=O)Cn2cnc3c2c(=O)n(C)c(=O)n3C)cc1`, for which the figures for the inhibition (in data set [4]; in the data set listed under Homo sapiens [5]; in the data set listed under Homo sapiens [8]) were 33%, 37% and 40%, respectively. Besides, the IC50 in [6] and in [7] was 6.9 µM throughout.

For `Cc1nc(Nc2cccc3c2C[C@H](O)CC3)oc1-c1ccc(C(F)(F)F)cc1`, the deltaT is 0.9 °C in data set [9] and 0.6 °C in [11]. Also, in data set [10], the Activity entry was “Toxic”.

Turning to `CC(=N/O)/C(C)=C/c1ccc(Cl)cc1`, the 50% inhibitory concentration (IC50) was 6.9 µM in [6], 8.8 µM in data set [7] and 3.1 µM in data set [12].
